From US20240417405A1, “Substituted Spiro Derivatives” (Janssen Pharmaceutica NV, priority 2021, published 2024)

How the values were obtained:
[1] = target: T1, menin/MLL (terbium chelate-labeled menin, FITC-MBM1 peptide) (Homo sapiens, UniProt O00255, T541A); assay: Menin/MLL homogenous time-resolved fluorescence (HTRF) assay; assay type: binding; conditions: 30 min incubation
T1 construct: Menin (a.a 1-610-6xhis tag)
T1 sequence (O00255 with tags, fused parts or gaps T541A): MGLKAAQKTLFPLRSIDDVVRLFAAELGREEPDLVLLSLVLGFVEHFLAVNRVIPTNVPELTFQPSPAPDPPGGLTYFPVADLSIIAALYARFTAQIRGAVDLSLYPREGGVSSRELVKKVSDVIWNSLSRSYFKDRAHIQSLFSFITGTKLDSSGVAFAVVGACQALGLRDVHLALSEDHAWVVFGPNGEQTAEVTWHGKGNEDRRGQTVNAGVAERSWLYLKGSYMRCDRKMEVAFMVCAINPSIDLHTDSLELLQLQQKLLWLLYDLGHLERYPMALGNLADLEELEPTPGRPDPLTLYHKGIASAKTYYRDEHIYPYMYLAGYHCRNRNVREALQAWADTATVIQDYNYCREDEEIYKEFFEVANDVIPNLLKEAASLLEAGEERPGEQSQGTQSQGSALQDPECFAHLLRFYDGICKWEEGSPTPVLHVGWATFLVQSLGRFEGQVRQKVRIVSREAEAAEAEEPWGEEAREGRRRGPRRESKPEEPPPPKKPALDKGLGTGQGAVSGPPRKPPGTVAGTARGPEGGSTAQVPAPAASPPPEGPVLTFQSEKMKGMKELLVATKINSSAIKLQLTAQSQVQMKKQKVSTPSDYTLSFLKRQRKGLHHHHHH
Outline: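 Percent inhibition, calculated from the 520/490 nm HTRF ratio against high and low controls, was fitted for IC50 with a 0.1 nM detection limit. Reactions held 200 pM Tb-menin and 75 nM FITC-MBM1 in pH 7.5 Tris buffer with 0.5% DMSO.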

KO-52 cells = assay: Proliferation assay, spheroid-like growth, KO-52 (MLL wildtype control cell line); assay type: cell-based, human; conditions: Homo sapiens, 192 h, KO-52 control cells, 8 days, confluence as measure of spheroid size; read-out: spheroid assay_OneTime KO-52 IC50
Experimental: The anti-proliferative effect of menin/MLL protein/protein interaction inhibitor test compounds was assessed in human leukemia cell lines. The cell line MOLM14 harbors a MLL translocation and expresses the MLL fusion proteins MLL-AF9, respectively, as well as the wildtype protein from the second allele. […] KO-52 was used as a control cell line containing two MLL (KMT2A) wildtype alleles in order to exclude compounds that display general cytotoxic effects.
MOLM14 cells were cultured in RPMI-1640 (Sigma Aldrich) supplemented with 10% heat-inactivated fetal bovine serum (HyClone), 2 mM L-glutamine (Sigma Aldrich) and 50 μg/ml gentamycin (Gibco). KO-52 cell lines were propagated in alpha-MEM (Sigma Aldrich) supplemented with 20% heat-inactivated fetal bovine serum (HyClone), 2 mM L-glutamine (Sigma Aldrich) and 50 μg/ml gentamycin (Gibco).
In order to assess the anti-proliferative effects, 200 MOLM14 cells, or 300 KO-52 cells were seeded in 200 μl media per well in 96-well round bottom, ultra-low attachment plates (Costar, catalogue number 7007). Cell seeding numbers were chosen based on growth curves to ensure linear growth throughout the experiment. Test compounds were added at different concentrations and the DMSO content was normalized to 0.3%. Cells were incubated for 8 days at 37° C. and 5% CO2. Spheroid like growth was measured in real-time by live-cell imaging (IncuCyteZOOM, Essenbio, 4× objective) acquiring images at day 8. Confluence (%) as a measure of spheroid size was determined using an integrated analysis tool.
In order to determine the effect of the test compounds over time, the confluence in each well as a measure of spheroid size, was calculated. Confluence of the highest dose of a reference compound was used as baseline for the LC (Low control) and the confluence of DMSO treated cells was used as 0% cytotoxicity (High Control, HC).
Absolute IC50 values were calculated as percent change in confluence as follows:
LC=Low Control: cells treated with e.g. 1 μM of the cytotoxic agent staurosporin, or e.g. cells treated with a high concentration of an alternative reference compound
GraphPad Prism (version 7.00) was used to calculate the IC50. Dose-response equation was used for the plot of % Effect vs Log 10 compound concentration with a variable slope and fixing the maximum to 100% and the minimum to 0%.

MOLM14 cells = assay: Proliferation assay, spheroid-like growth, MOLM14 (MLL-AF9 rearranged); assay type: cell-based, human; conditions: Homo sapiens, MOLM-14, 192 h, 8 days, confluence as measure of spheroid size, read-out: spheroid assay_OneTime MOLM14 IC50
Outline: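 Seed cells at linear-growth densities in low-attachment wells; add test compound at several concentrations, normalized to 0.3% DMSO; incubate 8 days at 37 °C; image spheroids and measure confluence; calculate absolute IC50 against DMSO and reference-compound controls.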

Row | SMILES | IC50 [1] [nM] | IC50 (MOLM14 cells) [nM] | IC50 (KO-52 cells) [nM]
1 | CC(C)[C@H](C1CCN(CC2COC2)CC1)N1CC2(CCN(c3ncnnc3Oc3ccc(F)cc3-c3cncnc3C3CC3)C2)C1 (single isomer, unassigned) [Compound 5] | 0.2 | 120 | 9310
2 | CC(C)C([C@H]1C[C@@H](N(C)C)C1)N1CC2(CCN(c3ncnnc3Oc3ccc(F)cc3-c3cncnc3C3CC3)C2)C1 (single isomer, unassigned) [Compound 7] | 0.1 | 4 | 5040
3 | CC(C)C([C@H]1C[C@H](N(C)C)C1)N1CC2(CCN(c3ncnnc3Oc3ccc(F)cc3-c3cncnc3C3CC3)C2)C1 (single isomer, unassigned) [Compound 8] | 0.3 | 52 | 10200
4 | CC(C)[C@H]([C@H]1C[C@@H](N2CCC(O)C(F)C2)C1)N1CC2(CCN(c3ncnnc3Oc3ccc(F)cc3-c3cncnc3C3CC3)C2)C1 (single isomer, unassigned) [Compound 10] | 0.4 | 17 | 5090
5 | CC(C)[C@H]([C@H]1C[C@@H](N2C[C@H]3COC[C@H]3C2)C1)N1CC2(CCN(c3ncnnc3Oc3ccc(F)cc3-c3cncnc3C3CC3)C2)C1 (single isomer, unassigned) [Compound 14] | 0.1 | 2 | 2110
6 | CC(C)C([C@H]1C[C@@H](N2CC3(COC3)C2)C1)N1CC2(CCN(c3ncnnc3Oc3ccc(F)cc3-c3cncnc3C3CC3)C2)C1 (single isomer, unassigned) [Compound 20] | 0.1 | 5 | 4300
7 | CC(C)C([C@H]1C[C@H](N2CC3(COC3)C2)C1)N1CC2(CCN(c3ncnnc3Oc3ccc(F)cc3-c3cncnc3C3CC3)C2)C1 (single isomer, unassigned) [Compound 21] | 0.1 | 52 | 4610
8 | CC(C)[C@H]([C@H]1C[C@@H](NC(=O)C2CC2)C1)N1CC2(CCN(c3ncnnc3Oc3ccc(F)cc3-c3ncccc3C3CC3)C2)C1 (single isomer, unassigned) [Compound 27] | 0.1 | 36 | 5560
9 | CC(C)[C@@H](C1CCN(CC2COC2)CC1)N1CC2(CCN(c3ncnnc3Oc3ccc(F)cc3-c3cncnc3C3CC3)C2)C1 (single isomer, unassigned) [Compound 29] | 1.8 | 220 | > 15000
10 | CC(C)[C@H]([C@H]1C[C@@H](N2CCC(F)C(O)C2)C1)N1CC2(CCN(c3ncnnc3Oc3ccc(F)cc3-c3cncnc3C3CC3)C2)C1 (single isomer, unassigned) [Compound 30] | 0.3 | 29 | 2580
11 | CC(C)[C@H]([C@H]1C[C@H](N2CCC(F)C(O)C2)C1)N1CC2(CCN(c3ncnnc3Oc3ccc(F)cc3-c3cncnc3C3CC3)C2)C1 (single isomer, unassigned) [Compound 31] | 0.3 | 7 | 2410
12 | CC(C)[C@H]([C@H]1C[C@H](N2CCC(O)C(F)C2)C1)N1CC2(CCN(c3ncnnc3Oc3ccc(F)cc3-c3cncnc3C3CC3)C2)C1 (single isomer, unassigned) [Compound 33] | 0.3 | 7 | 2490
13 | CC(C)[C@H]([C@H]1C[C@@H](N2CCN(C(=O)N(C)C)CC2)C1)N1CC2(CCN(c3ncnnc3Oc3ccc(F)cc3-c3cncnc3C3CC3)C2)C1 (single isomer, unassigned) [Compound 36] | 0.2 | 10 | 3050
14 | COCCN(C)[C@H]1C[C@@H]([C@@H](C(C)C)N2CC3(CCN(c4ncnnc4Oc4ccc(F)cc4-c4cncnc4C4CC4)C3)C2)C1 (single isomer, unassigned) [Compound 38] | 0.2 | 6 | > 15000
15 | CC(C)[C@H]([C@H]1C[C@@H](NC2CC2)C1)N1CC2(CCN(c3ncnnc3Oc3ccc(F)cc3-c3cncnc3C3CC3)C2)C1 (single isomer, unassigned) [Compound 39] | 0.1 | 7 | 1480

More lines, main results first:

Row | IC50 [1] [nM] | IC50 (MOLM14 cells) [nM] | SMILES | IC50 (KO-52 cells) [nM]
16 | 0.1 | 21 | CC(C)[C@H]([C@H]1C[C@@H](N2CCC(S(C)(=O)=O)CC2)C1)N1CC2(CCN(c3ncnnc3Oc3ccc(F)cc3-c3cncnc3C3CC3)C2)C1 (single isomer, unassigned) [Compound 9] | 7160
17 | 0.1 | 4 | COC1CCN([C@H]2C[C@@H](C(C(C)C)N3CC4(CCN(c5ncnnc5Oc5ccc(F)cc5-c5cncnc5C5CC5)C4)C3)C2)CC1 (single isomer, unassigned) [Compound 16] | 1880
18 | 0.1 | 2 | CC(C)[C@H]([C@H]1C[C@@H](N2CCCC2)C1)N1CC2(CCN(c3ncnnc3Oc3ccc(F)cc3-c3cncnc3C3CC3)C2)C1 (single isomer, unassigned) [Compound 18] | 810
19 | 0.1 | 3 | CC(C)[C@H]([C@H]1C[C@@H](N2CCC(O)CC2)C1)N1CC2(CCN(c3ncnnc3Oc3ccc(F)cc3-c3cncnc3C3CC3)C2)C1 (single isomer, unassigned) [Compound 22] | 10800
20 | 0.3 | 9 | CC(C)[C@@H]([C@H]1C[C@@H](N2CCC(S(C)(=O)=O)CC2)C1)N1CC2(CCN(c3ncnnc3Oc3ccc(F)cc3-c3cccnc3C3CC3)C2)C1 (single isomer, unassigned) [Compound 23] | 1060
21 | 0.1 | 85 | CC(C)[C@H]([C@H]1C[C@@H](N2CCC(S(C)(=O)=O)CC2)C1)N1CC2(CCN(c3ncnnc3Oc3ccc(F)cc3-c3ncccc3C3CC3)C2)C1 (single isomer, unassigned) [Compound 25] | 5570
22 | 6.2 | > 940 | CC(C)[C@@H]([C@H]1C[C@@H](N2CCC(S(C)(=O)=O)CC2)C1)N1CC2(CCN(c3ncnnc3Oc3ccc(F)cc3-c3ncccc3C3CC3)C2)C1 (single isomer, unassigned) [Compound 26] | > 15000
23 | 0.5 | 36 | CC(=O)N1CCN([C@H]2C[C@@H]([C@@H](C(C)C)N3CC4(CCN(c5ncnnc5Oc5ccc(F)cc5-c5cncnc5C5CC5)C4)C3)C2)CC1 (single isomer, unassigned) [Compound 34] | 5140
24 | 1.3 | 340 | CC(=O)N1CCN([C@H]2C[C@H]([C@@H](C(C)C)N3CC4(CCN(c5ncnnc5Oc5ccc(F)cc5-c5cncnc5C5CC5)C4)C3)C2)CC1 (single isomer, unassigned) [Compound 35] | > 15000
